Test results published in patent US6706663B2, “Herbicidal 3-heterocyclic substituted benzisothiazole and benzisoxazole compounds” (Wyeth, priority 2000, dated 2004).

Legend:
[1] = test system: TRZAWR (Wheat, Winter, cv Riband); test: Preemergence herbicidal evaluation; format: in vivo, Triticum aestivum; details: rated 4-5 weeks after treatment
Outline: (§1)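 Seeds mixed with potting soil were planted atop about one inch of soil, then sprayed with test compound in aqueous acetone. Cups were kept in the greenhouse and rated visually 4–5 weeks after treatment on a 0–9 scale against untreated control.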

[2] = test system: GLXMAW (Soybean, Williams); test: Preemergence herbicidal evaluation; format: in vivo, Glycine max, (L.) Merr. cv Williams; details: rated 4-5 weeks after treatment
[3] = test system: CYPSE (Cyperus serotinus); test: Flooded paddy, postemergence weed control; format: in vivo, Rottb.; details: postemergence weeds, rated 3-4 weeks after treatment
Excerpt: (§2) Results of herbicide evaluation are expressed on a rating scale (0-9). The scale is based upon a visual observation of plant stand, vigor, malformation, size, chlorosis and overall plant appearance as compared with a control.
(§3) Plastic containers containing weeds which are 3 to 5 cm tall and rice seedlings at the 1.5 to 2.5 leaf stage are flooded with water. The water is maintained at 1.5 to 3 cm above the soil surface for the duration of the experiment. Test compounds are applied as aqueous/acetone mixtures 50/50 v/v directly into the flood water to provide the equivalent of about 0.0320 to 0.2500 kg/ha of active ingredient. The treated containers are placed on greenhouse benches and cared for in accordance with conventional greenhouse procedures. Three to four weeks after treatment, the test is terminated and each container is examined and herbicidal effect rated according to the rating system provided in Example 87. The compounds evaluated are identified in Example 87 and plant species used are identified in Example 89.

[4] = test system: ECHORC (Echinochloa oryzoides); test: Flooded paddy, postemergence weed control; format: in vivo, Echinochloa oryzoides (Ard.) Fritsch.; details: postemergence weeds, rated 3-4 weeks after treatment
Excerpt: as §2, §3

[5] = test system: MOOVA (Monochoria vaginalis); test: Flooded paddy, postemergence weed control; format: in vivo, Presl.; details: postemergence weeds, rated 3-4 weeks after treatment
Excerpt: as §2, §3

[6] = test system: ABUTH (Abutilon theophrasti); test: Preemergence herbicidal evaluation; format: in vivo, Medic.; details: rated 4-5 weeks after treatment
GALAP (Galium aparine) = test: Preemergence herbicidal evaluation; format: in vivo; details: preemergence, rated 4-5 weeks after treatment
Outline: as §1

[7] = test system: CYPSE (Cyperus serotinus); test: Flooded paddy, preemergence weed control; format: in vivo, Rottb.; details: rated 3-4 weeks after treatment, 0-9 rating scale
Outline: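 Seeds or propagules were planted 0.5 cm deep in silt loam and flooded to 1.5–3 cm. Compounds in 50/50 v/v aqueous/acetone were pipetted into the flood water at about 0.0080 to 0.1250 kg/ha. After 3–4 weeks in the greenhouse, effect was rated visually on a 0–9 scale versus untreated control.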

CYPIR (Cyperus iria) = test: Flooded paddy, postemergence weed control; format: in vivo; details: postemergence weeds, rated 3-4 weeks after treatment
Excerpt: as §2, §3

[8] = test system: TRZAWR (Wheat, Winter, cv Riband); test: Postemergence herbicidal evaluation; format: in vivo, Triticum aestivum; details: for TRZAWR herbicidal rating: postemergence
Outline: (§4)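 Seedlings grown for about two weeks were sprayed postemergence and then kept under standard greenhouse care. Injury was rated visually 4–5 weeks after treatment on a 0–9 scale against untreated controls, and ratings from repeat tests were averaged.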

ZEAMX (Corn, Field) = test: Preemergence herbicidal evaluation; format: in vivo, Zea mays, L.; details: rated 4-5 weeks after treatment
[9] = test system: AMBEL (Ambrosia artemisifolia); test: Postemergence herbicidal evaluation; format: in vivo, L.; details: for AMBEL herbicidal rating: postemergence
Outline: as §4

[10] = test system: CHEAL (Chenopodium album); test: Postemergence herbicidal evaluation; format: in vivo, L.; details: for CHEAL herbicidal rating: postemergence
Outline: as §4

[11] = test system: CASOB (Cassia obtusifolia); test: Postemergence herbicidal evaluation; format: in vivo, L.; details: for CASOB herbicidal rating: postemergence
Outline: as §4

[12] = test system: SAGPY (Sagittaria pygmaea); test: Flooded paddy, postemergence weed control; format: in vivo, L.; details: postemergence weeds, rated 3-4 weeks after treatment
Excerpt: as §2, §3

ORYSAT (Rice, Tebonnet) = test: Flooded paddy, post-transplant and postemergence rice tolerance; format: in vivo, Oryza sativa, (L.) Tebonnet; details: post-transplant rice, rated 3-4 weeks after treatment
Excerpt: as §2, §3

CCc1cc(-c2nsc3ccc(-n4c(=O)cc(C(F)(F)F)n(C)c4=O)cc23)c(CC)s1 [Compound 8, 3-[3-(2,5-diethyl-3-thienyl)-1,2-benzisothiazol-5-yl]-1-methyl-6-(trifluoromethyl)uracil]
3.0: ZEAMX preemergence herbicidal rating (ZEAMX (Corn, Field); Rate 0.2500 kg/ha) | Postemergence herbicidal rating, AMBEL ([9]; rate 0.0320 kg/ha)
2.0: herbicide rating (0-9) ORYSAT (rice tolerance) (ORYSAT (Rice, Tebonnet); 0.0620 kg/ha into flood water) | herbicide rating (0-9) ORYSAT (rice tolerance) (ORYSAT (Rice, Tebonnet); 0.1250 kg/ha into flood water)
4.5: herbicide rating (0-9) MOOVA ([5]; 0.0320 kg/ha into flood water) | herbicide rating (0-9) MOOVA ([5]; 0.0620 kg/ha into flood water) | herbicidal rating, CYPSE ([7]; rate 0.1250 kg/ha)
4.0: herbicide rating (0-9) ECHORC ([4]; 0.0620 kg/ha into flood water) | Postemergence herbicidal rating, TRZAWR ([8]; rate 0.0320 kg/ha) | Postemergence herbicidal rating, CHEAL ([10]; rate 0.0320 kg/ha)
7.0: Postemergence herbicidal rating, CHEAL ([10]; rate 0.0620 kg/ha)
0.0: TRZAWR preemergence herbicidal rating ([1]; Rate 0.0620 kg/ha) | TRZAWR preemergence herbicidal rating ([1]; Rate 0.1250 kg/ha) | TRZAWR preemergence herbicidal rating ([1]; Rate 0.2500 kg/ha) | GLXMAW preemergence herbicidal rating ([2]; Rate 0.0620 kg/ha) | GLXMAW preemergence herbicidal rating ([2]; Rate 0.1250 kg/ha) | GLXMAW preemergence herbicidal rating ([2]; Rate 0.2500 kg/ha) | herbicide rating (0-9) CYPSE ([3]; 0.0320 kg/ha into flood water) | herbicide rating (0-9) CYPSE ([3]; 0.0620 kg/ha into flood water) | herbicide rating (0-9) CYPSE ([3]; 0.1250 kg/ha into flood water) | ABUTH preemergence herbicidal rating ([6]; Rate 0.0620 kg/ha) | GALAP preemergence herbicidal rating (GALAP (Galium aparine); Rate 0.0620 kg/ha) | GALAP preemergence herbicidal rating (GALAP (Galium aparine); Rate 0.1250 kg/ha) | ZEAMX preemergence herbicidal rating (ZEAMX (Corn, Field); Rate 0.0620 kg/ha) | ZEAMX preemergence herbicidal rating (ZEAMX (Corn, Field); Rate 0.1250 kg/ha) | herbicide rating (0-9) SAGPY ([12]; 0.0320 kg/ha into flood water) | herbicide rating (0-9) SAGPY ([12]; 0.0620 kg/ha into flood water)
9.0: ABUTH preemergence herbicidal rating ([6]; Rate 0.1250 kg/ha) | ABUTH preemergence herbicidal rating ([6]; Rate 0.2500 kg/ha) | GALAP preemergence herbicidal rating (GALAP (Galium aparine); Rate 0.2500 kg/ha) | herbicide rating (0-9) CYPIR (CYPIR (Cyperus iria); 0.0320 kg/ha into flood water) | herbicide rating (0-9) CYPIR (CYPIR (Cyperus iria); 0.0620 kg/ha into flood water) | herbicide rating (0-9) CYPIR (CYPIR (Cyperus iria); 0.1250 kg/ha into flood water)
3.5: herbicide rating (0-9) ECHORC ([4]; 0.0320 kg/ha into flood water)
5.0: herbicide rating (0-9) ECHORC ([4]; 0.1250 kg/ha into flood water) | Postemergence herbicidal rating, TRZAWR ([8]; rate 0.0620 kg/ha)
5.5: herbicide rating (0-9) MOOVA ([5]; 0.1250 kg/ha into flood water)
1.0: Postemergence herbicidal rating, CASOB ([11]; rate 0.0320 kg/ha) | Postemergence herbicidal rating, CASOB ([11]; rate 0.0620 kg/ha) | herbicide rating (0-9) SAGPY ([12]; 0.1250 kg/ha into flood water) | herbicide rating (0-9) ORYSAT (rice tolerance) (ORYSAT (Rice, Tebonnet); 0.0320 kg/ha into flood water)
6.0: Postemergence herbicidal rating, AMBEL ([9]; rate 0.0620 kg/ha)

Cn1c(C(F)(F)F)cc(=O)n(-c2ccc3snc(-c4sccc4Cl)c3c2)c1=O [Compound 52, 3-[3-(3-chloro-2-thienyl)-1,2-benzisothiazol-5-yl]-1-methyl-6-(trifluoromethyl)uracil]
0.0: herbicide rating (0-9) SAGPY ([12]; 0.0320 kg/ha into flood water) | herbicide rating (0-9) SAGPY ([12]; 0.0620 kg/ha into flood water)
8.5: Preemergence herbicidal rating ABUTH ([6]; Rate 0.1250 kg/ha)
1.5: Preemergence herbicidal rating GLXMAW ([2]; Rate 0.0620 kg/ha) | Preemergence herbicidal rating ZEAMX (ZEAMX (Corn, Field); Rate 0.0620 kg/ha)
5.0: TRZAWR herbicidal rating ([8]; rate 0.1250 kg/ha) | CHEAL herbicidal rating ([10]; rate 0.0320 kg/ha) | CHEAL herbicidal rating ([10]; rate 0.0620 kg/ha)
2.0: herbicide rating (0-9) MOOVA ([5]; 0.0320 kg/ha into flood water) | herbicide rating (0-9) MOOVA ([5]; 0.0620 kg/ha into flood water)
6.0: herbicide rating (0-9) ECHORC ([4]; 0.0320 kg/ha into flood water) | herbicide rating (0-9) ORYSAT (rice tolerance) (ORYSAT (Rice, Tebonnet); 0.0620 kg/ha into flood water)
4.0: Preemergence herbicidal rating GLXMAW ([2]; Rate 0.1250 kg/ha) | TRZAWR herbicidal rating ([8]; rate 0.0320 kg/ha) | TRZAWR herbicidal rating ([8]; rate 0.0620 kg/ha) | herbicide rating (0-9) SAGPY ([12]; 0.1250 kg/ha into flood water) | herbicide rating (0-9) ORYSAT (rice tolerance) (ORYSAT (Rice, Tebonnet); 0.0320 kg/ha into flood water)
1.0: Preemergence herbicidal rating TRZAWR ([1]; Rate 0.0620 kg/ha) | Preemergence herbicidal rating TRZAWR ([1]; Rate 0.1250 kg/ha) | CASOB herbicidal rating ([11]; rate 0.0320 kg/ha)
3.5: Preemergence herbicidal rating ZEAMX (ZEAMX (Corn, Field); Rate 0.1250 kg/ha)
9.0: Preemergence herbicidal rating GLXMAW ([2]; Rate 0.2500 kg/ha) | herbicide rating (0-9) ECHORC ([4]; 0.0620 kg/ha into flood water) | herbicide rating (0-9) MOOVA ([5]; 0.1250 kg/ha into flood water) | Preemergence herbicidal rating ABUTH ([6]; Rate 0.0620 kg/ha) | Preemergence herbicidal rating ABUTH ([6]; Rate 0.2500 kg/ha) | herbicidal rating, CYPSE ([7]; rate 0.0320 kg/ha) | herbicidal rating, CYPSE ([7]; rate 0.1250 kg/ha) | herbicide rating (0-9) CYPIR (CYPIR (Cyperus iria); 0.1250 kg/ha into flood water) | AMBEL herbicidal rating ([9]; rate 0.0320 kg/ha) | AMBEL herbicidal rating ([9]; rate 0.0620 kg/ha) | AMBEL herbicidal rating ([9]; rate 0.1250 kg/ha) | CHEAL herbicidal rating ([10]; rate 0.1250 kg/ha)
3.0: Preemergence herbicidal rating TRZAWR ([1]; Rate 0.2500 kg/ha)
7.0: herbicide rating (0-9) CYPSE ([3]; 0.0620 kg/ha into flood water) | Preemergence herbicidal rating ZEAMX (ZEAMX (Corn, Field); Rate 0.2500 kg/ha) | CASOB herbicidal rating ([11]; rate 0.0620 kg/ha) | herbicide rating (0-9) ORYSAT (rice tolerance) (ORYSAT (Rice, Tebonnet); 0.1250 kg/ha into flood water)
8.0: herbicide rating (0-9) CYPSE ([3]; 0.1250 kg/ha into flood water) | herbicide rating (0-9) ECHORC ([4]; 0.1250 kg/ha into flood water) | CASOB herbicidal rating ([11]; rate 0.1250 kg/ha)
